According to PubChem BioAssay AID330 (DTP/NCI, 2004):
Toxic doses and inconclusive results are not listed. How the source made its calls: active means survival T/C of 150% or more; inactive means T/C below 125% in these data.

System: P388 leukemia ip, CD2F1 mice, survival T/C
Experiment: NCI In Vivo Anticancer Drug Screen. Data for tumor model P388 Leukemia (intraperitoneal) in CD2F1 (CDF1) mice
Details: endpoint: median survival time, higher = longer survival
Method in brief: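 Mice carrying the transplanted tumor received test compound or vehicle. Survival was recorded in each group, and the value is the treated-group measurement divided by that of the vehicle-treated control group.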

[1] = dose: 60.0 mg/kg/injection, schedule: Q01DX005 (ip), vehicle: saline with Tween-80
[2] = dose: 120.0 mg/kg/injection, schedule: Q01DX005 (ip), vehicle: saline with Tween-80
[3] = dose: 240.0 mg/kg/injection, schedule: Q01DX005 (ip), vehicle: saline with Tween-80
[4] = dose: 50.0 mg/kg/injection, schedule: Q01DX005 (ip), vehicle: saline with Tween-80
[5] = dose: 100.0 mg/kg/injection, schedule: Q01DX005 (ip), vehicle: saline with Tween-80
[6] = dose: 200.0 mg/kg/injection, schedule: Q01DX005 (ip), vehicle: saline with Tween-80
[7] = dose: 50.0 mg/kg/injection, schedule: Q01DX005 (ip), vehicle: Klucel (hydroxypropylcellulose) (HPC)
[8] = dose: 100.0 mg/kg/injection, schedule: Q01DX005 (ip), vehicle: Klucel (hydroxypropylcellulose) (HPC)
[9] = dose: 50.0 mg/kg/injection, schedule: Q01DX009 (ip), vehicle: saline
[10] = dose: 100.0 mg/kg/injection, schedule: Q01DX009 (ip), vehicle: saline
[11] = dose: 200.0 mg/kg/injection, schedule: Q01DX009 (ip), vehicle: saline
[12] = dose: 50.0 mg/kg/injection, schedule: Q01DX005 (ip), vehicle: saline
[13] = dose: 100.0 mg/kg/injection, schedule: Q01DX005 (ip), vehicle: saline

Measured: T/C

Cc1cc2nc3[nH]c(=O)c4ccccc4c(=O)n3c2cc1C
inactive: dose: 100.0 mg/kg/injection, schedule: Q01DX001 (ip), vehicle: Klucel (hydroxypropylcellulose) (HPC) 98 % of control | dose: 200.0 mg/kg/injection, schedule: Q01DX001 (ip), vehicle: Klucel (hydroxypropylcellulose) (HPC) 92 % of control

CC1=CC[C@@H]2[C@@H](CC[C@@]2(C)O)C(C)(C)[C@H]1CC[C@@H]1[C@@]2(C)CC[C@@H](O)C(C)(C)O[C@@H]2CC[C@]1(C)O
inactive: dose: 8.0 mg/kg/injection, schedule: Q01DX005 (ip), vehicle: saline + Tween-80 + alcohol 103 % of control | dose: 16.0 mg/kg/injection, schedule: Q01DX005 (ip), vehicle: saline + Tween-80 + alcohol 103 % of control | dose: 32.0 mg/kg/injection, schedule: Q01DX005 (ip), vehicle: saline + Tween-80 + alcohol 97 % of control | dose: 64.0 mg/kg/injection, schedule: Q01DX005 (ip), vehicle: saline + Tween-80 + alcohol 96 % of control

CC1(C)COP(=O)(c2ccccc2)N1 (configuration not stated)
inactive: [1] 103 % of control | [2] 107 % of control | [3] 101 % of control

CC(C)(C)OC(=O)NC(COCc1ccccc1)C(=O)O (configuration not stated)
inactive: [4] 103 % of control | [5] 98 % of control | [6] 97 % of control

S=C(S)N1CCOCC1
inactive: dose: 50.0 mg/kg/injection, schedule: Q04DX003 (ip), vehicle: saline 100 % of control | dose: 100.0 mg/kg/injection, schedule: Q04DX003 (ip), vehicle: saline 100 % of control | dose: 200.0 mg/kg/injection, schedule: Q04DX003 (ip), vehicle: saline 100 % of control

C=CCN1C(=O)NC(=O)C(c2ccccc2)C1=O (configuration not stated)
inactive: dose: 50.0 mg/kg/injection, schedule: Q01DX009 (ip), vehicle: Klucel (hydroxypropylcellulose) (HPC) 98 % of control | dose: 100.0 mg/kg/injection, schedule: Q01DX009 (ip), vehicle: Klucel (hydroxypropylcellulose) (HPC) 100 % of control | dose: 200.0 mg/kg/injection, schedule: Q01DX009 (ip), vehicle: Klucel (hydroxypropylcellulose) (HPC) 92 % of control

CCOC(=O)c1c(NC(=O)c2ccccc2)sc2c(=O)oc(-c3ccccc3)nc12
inactive: [7] 97 % of control | [8] 90 % of control | dose: 200.0 mg/kg/injection, schedule: Q01DX005 (ip), vehicle: Klucel (hydroxypropylcellulose) (HPC) 90 % of control

O=C1NC(=O)C2(N1)C1CCCCC2C(c2ccccc2)NC1c1ccccc1 (configuration not stated)
inactive: dose: 100.0 mg/kg/injection, schedule: Q01DX001 (ip), vehicle: saline with Tween-80 100 % of control | dose: 200.0 mg/kg/injection, schedule: Q01DX001 (ip), vehicle: saline with Tween-80 98 % of control | dose: 400.0 mg/kg/injection, schedule: Q01DX001 (ip), vehicle: saline with Tween-80 96 % of control

ON(C(=S)c1ccccc1)c1ccccc1
inactive: [4] 105 % of control | [5] 102 % of control | [6] 102 % of control

COC1OC(CO)C2OC(C)(C)OC12 (configuration not stated)
inactive: dose: 50.0 mg/kg/injection, schedule: Q01DX005 (ip), vehicle: suspension in saline 101 % of control | dose: 100.0 mg/kg/injection, schedule: Q01DX005 (ip), vehicle: suspension in saline 106 % of control | dose: 200.0 mg/kg/injection, schedule: Q01DX005 (ip), vehicle: suspension in saline 101 % of control

CN(C)c1ccc(/C=[N+](\C)[O-])cc1
inactive: [9] 91 % of control | [10] 98 % of control | [11] 95 % of control

O=C1Cc2cc3c(cc2C=C2CCCN12)OCO3
inactive: dose: 6.25 mg/kg/injection, schedule: Q01DX009 (ip), vehicle: water 100 % of control | dose: 12.5 mg/kg/injection, schedule: Q01DX009 (ip), vehicle: water 100 % of control | dose: 25.0 mg/kg/injection, schedule: Q01DX009 (ip), vehicle: water 103 % of control | dose: 50.0 mg/kg/injection, schedule: Q01DX009 (ip), vehicle: water 106 % of control | dose: 100.0 mg/kg/injection, schedule: Q01DX009 (ip), vehicle: water 100 % of control

NNC(=O)c1ccccc1Cl
inactive: dose: 6.25 mg/kg/injection, schedule: Q01DX009 (ip), vehicle: Klucel (hydroxypropylcellulose) (HPC) 97 % of control | dose: 6.25 mg/kg/injection, schedule: Q01DX009 (ip), vehicle: saline 100 % of control | dose: 12.5 mg/kg/injection, schedule: Q01DX009 (ip), vehicle: Klucel (hydroxypropylcellulose) (HPC) 96 % of control | dose: 12.5 mg/kg/injection, schedule: Q01DX009 (ip), vehicle: saline 100 % of control | dose: 25.0 mg/kg/injection, schedule: Q01DX009 (ip), vehicle: Klucel (hydroxypropylcellulose) (HPC) 100 % of control

Cc1ccc(OS(=O)(=O)NC(=O)NCc2ccco2)cc1
inactive: [9] 92 % of control | [10] 101 % of control | [11] 105 % of control

CC12CCC(=O)C=C1C=CC1C2CCC2(C)C1CCC21CCC(=O)O1 (configuration not stated)
inactive: dose: 50.0 mg/kg/injection, schedule: Q01DX009 (ip), vehicle: saline with Tween-80 94 % of control | dose: 100.0 mg/kg/injection, schedule: Q01DX009 (ip), vehicle: saline with Tween-80 91 % of control | dose: 200.0 mg/kg/injection, schedule: Q01DX009 (ip), vehicle: saline with Tween-80 97 % of control

CC1=COC(C)(C2NC(C)(C)CC(C)O2)CC1 (configuration not stated)
inactive: [12] 107 % of control | [13] 103 % of control | dose: 200.0 mg/kg/injection, schedule: Q01DX005 (ip), vehicle: saline 102 % of control

Cc1noc(/C=C\c2ccccc2O)c1[N+](=O)[O-]
inactive: [4] 92 % of control | [5] 99 % of control | [6] 97 % of control

CC(=O)Nc1ccsc1
inactive: dose: 25.0 mg/kg/injection, schedule: Q01DX005 (ip), vehicle: saline 102 % of control | [12] 104 % of control | [13] 109 % of control

O=[N+]([O-])c1ccc(/C=C/C(CCN2CCCCC2)=N\O)o1
inactive: [1] 104 % of control | [2] 104 % of control | [3] 100 % of control

CCN(CC)CCOC(=O)C(OCCC(C)C)(c1ccccc1)c1ccccc1
inactive: [7] 113 % of control | [8] 113 % of control

COc1cc(OC)cc(C2OC(=O)c3c(OC)cc(C)cc32)c1 (configuration not stated)
inactive: dose: 100.0 mg/kg/injection, schedule: Q04DX002 (ip), vehicle: saline with Tween-80 93 % of control | dose: 200.0 mg/kg/injection, schedule: Q04DX002 (ip), vehicle: saline with Tween-80 88 % of control | dose: 400.0 mg/kg/injection, schedule: Q04DX002 (ip), vehicle: saline with Tween-80 90 % of control

COc1ccc(Cc2cc3c(cc2OC)OCO3)cc1
inactive: dose: 2.5 mg/kg/injection, schedule: Q01DX009 (ip), vehicle: saline with Tween-80 99 % of control | dose: 5.0 mg/kg/injection, schedule: Q01DX009 (ip), vehicle: saline with Tween-80 99 % of control | dose: 10.0 mg/kg/injection, schedule: Q01DX009 (ip), vehicle: saline with Tween-80 99 % of control | dose: 15.0 mg/kg/injection, schedule: Q01DX005 (ip), vehicle: saline with Tween-80 102 % of control | dose: 31.0 mg/kg/injection, schedule: Q01DX005 (ip), vehicle: saline with Tween-80 102 % of control | dose: 62.5 mg/kg/injection, schedule: Q01DX005 (ip), vehicle: saline with Tween-80 109 % of control | dose: 125.0 mg/kg/injection, schedule: Q01DX005 (ip), vehicle: saline with Tween-80 103 % of control | dose: 250.0 mg/kg/injection, schedule: Q01DX005 (ip), vehicle: saline with Tween-80 103 % of control

CN1C(=O)n2c(nc3ccccc32)C(Cl)(Cl)C1=O
inactive: [1] 104 % of control | [2] 98 % of control

c1ccc2c3c(ccc2c1)CC1CCCN1C3 (configuration not stated)
inactive: dose: 100.0 mg/kg/injection, schedule: Q04DX003 (ip), vehicle: Klucel (hydroxypropylcellulose) (HPC) 100 % of control | dose: 200.0 mg/kg/injection, schedule: Q04DX003 (ip), vehicle: Klucel (hydroxypropylcellulose) (HPC) 103 % of control

O=c1oc2ccc(Cl)cc2c2c1OC(c1ccccc1)CN2 (configuration not stated)
inactive: dose: 3.13 mg/kg/injection, schedule: Q01DX009 (ip), vehicle: saline with Tween-80 110 % of control | dose: 6.25 mg/kg/injection, schedule: Q01DX009 (ip), vehicle: saline with Tween-80 110 % of control | dose: 12.5 mg/kg/injection, schedule: Q01DX009 (ip), vehicle: saline with Tween-80 103 % of control | dose: 25.0 mg/kg/injection, schedule: Q01DX009 (ip), vehicle: saline with Tween-80 103 % of control
